Source: patent US20010049374A1 (priority 1997, published 2001)
Where two headings read alike, the source gives them in different places.

Target: T1, urokinase enzyme Abbokinase (Homo sapiens, UniProt P00749)
T1 construct: purchased Abbott Laboratories, Abbott Park, Ill
Assay: Determination of urokinase inhibition (Abbokinase, chromogenic substrate S-2444)
Type: biochemical
Conditions: substrate S-2444 at 200 μM, enzyme 2-3 nM, pH 7.4, 405 nm

[1] = IC50, Inhibitory potency against urokinase
[2] = Inhibitory potency against urokinase, read-out: IC50

Protocol: Several vials were reconstituted as directed on the vial, aliquoted and stored frozen. The enzyme was further diluted in assay buffer and 10 μl was used in the assay. Enzyme concentration in the assay was 2-3 nM. […] The Spectromax® calculated the reaction rates which were used to calculate percent inhibition of the compounds of this invention versus the reaction rate of the enzyme in the absence of any inhibitor. The Ki's of the inhibitors were calculated from the percent inhibition and previously established Km.

| IC50 [1] [nM] | IC50 [2] [nM] | Compound |
| --- | --- | --- |
| 2200 | – | CCCOc1ccc2ccc(C(=N)N)cc2c1I [Example 43, 7-Propoxy-8-iodo-2-naphthalenecarboximidamide] |
| 2940 | – | [H]/N=C(/N)c1ccc2cc(C=Cc3cccs3)ccc2c1 [Example 45, (E)-6-[2-(2-Thienyl)ethenyl]-2-naphthalenecarboximidamide] |
| 2400 | – | CC(=O)CCc1ccc2cc(C(=N)N)ccc2c1 [Example 46, 6-(3-Oxobutyl)-2-naphthalenecarboximidamide] |
| 4800 | – | COc1cccc(-c2ccc3cc(C(=N)N)ccc3c2)c1 [Example 47, 6-(3-Methoxyphenyl)-2-naphthalenecarboximidamide] |
| 3300 | – | N=C(N)c1ccc2cc(Oc3ccccc3C=O)ccc2c1 [Example 49, 6-(2-Formylphenoxy)-2-naphthalenecarboximidamide] |
| 6130 | – | N=C(N)c1ccc2cc(-c3ccccc3C=O)ccc2c1 [Example 50, 6-(2-Formylphenyl)-2-naphthalenecarboximidamide] |
| 4700 | – | N=C(N)c1ccc2cc(-c3ccccc3CO)ccc2c1 [Example 51, 6-[2-(Hydroxymethyl)phenyl]-2-naphthalenecarboximidamide] |
| 4700 | – | CC(=O)C=Cc1ccc2cc(C(=N)N)ccc2c1 [Example 52, 6-(3-Oxo-1-butenyl)-2-naphthalenecarboximidamide] |
| 2960 | – | COc1ccc2ccc(C(=N)N)cc2c1-c1cn[nH]c1 [Example 53, 7-Methoxy-8-(1H-pyrazol-4-yl)-2-naphthalenecarboximidamide] |
| 2700 | – | COc1ccc2ccc(C(=N)N)cc2c1I [Example 54, 7-Methoxy-8-iodo-2-naphthalenecarboximidamide] |
| 3400 | – | CSc1ccccc1-c1ccc2cc(C(=N)N)ccc2c1 [Example 57, 6-[2-(Methylthio)phenyl]-2-naphthalenecarboximidamide] |
| 720 | – | COc1ccc2ccc(C(=N)N)cc2c1-c1cc2ccccc2o1 [Example 60, 7-Methoxy-8-(2-benzofuranyl)naphthalene-2-carboximidamide] |
| 730 | – | [H]/N=C(/N)c1ccc2cccc(C=Cc3ccc4c(c3)OCO4)c2c1 [Example 61, (E)-8-[2-(1,3-Benzodioxol-5-yl)ethenyl]-2-naphthalenecarboximidamide] |
| 560 | – | COc1ccc2ccc(C(=N)N)cc2c1Oc1ncccn1 [Example 64, 7-Methoxy-8-[2-pyrimidinyl(oxy)]-2-naphthalenecarboximidamide] |
| 3130 | – | COc1ccc2ccc(C(=N)N)cc2c1Oc1ccc([N+](=O)[O-])cc1 [Example 66, 7-Methoxy-8-(4-nitrophenoxy)-2-naphthalenecarboximidamide] |
| – | 2780 | COc1ccc2ccc(C(=N)N)cc2c1Oc1c(F)c(F)c(F)c(F)c1F [Example 67, 7-Methoxy-8-pentafluorophenoxy-2-naphthalenecarboximidamide] |
| 3300 | – | N=C(N)c1ccc2cc(N)ccc2c1 [Example 73, 6-Aminonaphthalene-2-carboximidamide] |
| – | 960 | CC(C)(C)OC(=O)Nc1ccc(NC(=O)Nc2ccc3cc(C(=N)N)ccc3c2)cc1 [Example 79, 1,1-dimethylethyl [4-[[[6-aminoiminomethyl)-2-naphthalenyl)amino]carbonyl]amino]phenyl carbamate] |
| 1930 | – | [H]/N=C(/N)c1ccc2cc(C=CSc3ccccc3)ccc2c1 [Example 80, (E)-6-[2-(Phenylthio)ethenyl]-2-naphthalenecarboximidamide] |
| 3210 | – | [H]/N=C(/N)c1ccc2cc(C=Cc3ccco3)ccc2c1 [Example 81, (E)-6-[2-(2-Furanyl)ethenyl]-2-naphthalenecarboximidamide] |
| 3080 | – | [H]/N=C(/N)c1ccc2cc(C=Cn3ccnc3)ccc2c1 [Example 82, (E)-6-[2-(1H-Imidazol-1-yl)ethenyl]-2-naphthalenecarboximidamide] |
| – | 2730 | N=C(N)c1ccc2cc(/C=C/c3ccc(C(N)=O)cc3)ccc2c1 [Example 88, (E)-4-[2-(6-Aminoininomethyl-2-naphthalenyl)ethenyl]benzamide] |
| 6500 | – | N=C(N)c1ccc2cc(OCCc3ccc(N)cc3)ccc2c1 [Example 89, 6-[2-(4-Aminophenyl)ethoxy]-2-naphthalenecarboximidamide] |
| 50 | – | COc1ccc2ccc(C(=N)N)cc2c1Nc1ncccn1 [Example 91, 7-Methoxy-8-[2-pyrimidinyl(amino)]-2-naphthalenecarboximidamide] |

| IC50 [1] [nM] | IC50 [2] [nM] | Compound |
| --- | --- | --- |
| – | 860 | [H]/N=C(/N)c1ccc2cc(C=Cc3cccc(CO)c3)ccc2c1 [Example 96, (E)-6-[2-[(3-hydroxymethyl)phenyl]ethenyl]-2-naphthalenecarboximidamide] |
| 240 | – | [H]/N=C(/N)c1ccc2cc(C=Cc3ccc(CN)cc3)ccc2c1 [Example 98, (E)-6-[2-[4-(aminomethyl)phenyl]ethenyl]-2-naphthalenecarboximidamide] |
| 800 | – | COc1ccc2ccc(C(=N)N)cc2c1NCc1ccccc1 [Example 101, 7-methoxy-8-[(phenylmethyl)amino]-2-naphthalenecarboximidamide] |
| 570 | – | COc1ccc(Nc2c(OC)ccc3ccc(C(=N)N)cc23)cc1 [Example 103, 7-methoxy-8-[(4-methoxyphenyl)amino]-2-naphthalenecarboximidamide] |
| 840 | – | [H]/N=C(/N)c1ccc2cc(C=Cc3ccc([C@@H](N)CO)cc3)ccc2c1 [Example 105, (E)-6-[2-[4-(1R-amino-2-hydroxyethyl)phenyl]ethenyl]-2-naphthalenecarboximidamide] |
| 760 | – | COc1ccc2ccc(C(=N)N)cc2c1Nc1ncccn1 [Example 106, 7-methoxy-8-(2-pyrimidinylamino)-2-naphthalenecarboximidamide] |
| – | 2340 | [H]/N=C(/N)c1ccc2cc(C=Cc3ccc(CN(C)C)cc3)ccc2c1 [Example 107, (E)-6-[2-[[4-(dimethylamino)methyl]phenyl]ethenyl]-2-naphthalenecarboximidamide] |
| 4170 | – | N=C(N)c1ccc2cc(-c3cccc(C=O)c3)ccc2c1 [Example 111, 6-(3-formylphenyl)-2-naphthalenecarboximidamide] |
| – | 4410 | COC(=O)CCCCOc1ccc2ccc(C(=N)N)cc2c1 [Example 119, methyl 5-[7-[(aminoiminomethyl)-2-naphthalenyl]oxy]pentanoate] |
| 890 | – | N=C(N)c1ccc2cc(C#Cc3ccc(N)cc3)ccc2c1 [Example 121, 6-[(4-aminophenyl)ethynyl]-2-naphthalenecarboximidamide] |
| – | 1240 | CC(C)(C)OC(=O)NCc1ccc(C#Cc2ccc3cc(C(=N)N)ccc3c2)cc1 [Example 123, 1,1-dimethylethyl [[4-[[6-(aminoiminomethyl)-2-naphathalenyl]ethynyl]phenyl]methyl]carbamate] |
| 230 | – | COc1ccc(C#Cc2ccc3cc(C(=N)N)ccc3c2)cc1CCN [Example 125, 6-[[3-(2-aminoethyl)-4-methoxyphenyl]ethynyl]-2-naphthalenecarboximidamide] |
| 870 | – | N=C(N)c1ccc2cc(C#Cc3ccc(CO)cc3)ccc2c1 [Example 126, 6-[[4-(hydroxymethyl)phenyl]ethynyl]-2-naphthalenecarboximidamide] |
| 4180 | – | COc1ccc2ccc(C(=N)N)cc2c1C1=CC(=O)CC1 [Example 131, 7-methoxy-8-(3-oxo-1-cyclopenten-1-yl)-2-naphthalenecarboximidamide] |
| – | 820 | CC(C)(C)OC(=O)NCC1CCC(C(=O)Nc2ccc3cc(C(=N)N)ccc3c2)CC1 (centres unmarked) [Example 137, 1,1-dimethylethyl [[4-[[[6-(aminoiminomethyl)-2-naphathalenyl]amino]carbonyl]-cyclohexyl]methyl]carbamate] |
| 2640 | – | N=C(N)c1ccc2cc(NC(=O)C3CCC(CN)CC3)ccc2c1 (centres unmarked) [Example 139, N-[6-(aminoiminomethyl)-2-naphthalenyl]-4-4-(aminomethyl)cyclohexanescarboxamide] |
| 460 | – | N=C(N)c1ccc2cc(NC(=O)Nc3ccc(CN)cc3)ccc2c1 [Example 140, N-[6-(aminoiminomethyl)-2-naphthalenyl]-N′-[(4-aminomethyl)phenyl]urea] |
| – | 1.17 | COC(=O)Nc1cc(C(=O)Nc2ccc(CN)cc2)cc2ccc(C(=N)N)cc12 [Example 141, methyl [7-(aminoiminomethyl)-3-[[[4-(aminomethyl)phenyl]amino]carbonyl]-1-naphathalenyl]carbamate] |
| 1260 | – | N=C(N)c1ccc2cc(-c3ncc(-c4ccccc4)o3)ccc2c1 [Example 144, 6-(5-phenyl-2-oxazolyl)-2-naphthalenecarboximidamide] |
| 2590 | – | N=C(N)c1ccc2cc(-c3ncc(-c4ccccc4)s3)ccc2c1 [Example 145, 6-(5-phenyl-2-thiazolyl)-2-naphthalenecarboximidamide] |
| 3800 | – | COc1ccc2ccc(C(=N)N)cc2c1Sc1ccccc1 [Example 149, 7-methoxy-8-(phenylthio)-2-naphthalenecarboximidamide] |
| 160 | – | COc1ccc2ccc(C(=N)N)cc2c1Nc1cnccn1 [Example 150, 7-methoxy-8-(pyrazinylamino)-2-naphthalenecarboximidamide] |
| 35 | – | CSc1cc(-c2cc(C(=O)Nc3ccccc3)cc3ccc(C(=N)N)cc23)co1 [Example 154, 6-(aminoiminomethyl-4-[5-(methylthio)-3-furanyl)]-N-phenyl-2-naphthalenecarboxamide] |
| – | 2330 | COC(=O)NCc1cccc2ccc(C(=N)N)cc12 [Example 155, methyl [7-(aminoiminomethyl)-1-naphthalenyl]methyl carbamate] |

| Compound | IC50 [1] [nM] | IC50 [2] [nM] |
| --- | --- | --- |
| COc1ccc2ccc(C(=N)N)cc2c1Oc1nccs1 [Example 65, 7-Methoxy-8-[2-thiazoyl(oxy)]naphthalene-2-carboximidamide] | – | 540 |
| CN(C(=O)Nc1ccc2cc(C(=N)N)ccc2c1)c1ccccc1 [Example 72] | – | 4300 |
